As a reminder, the EC50 is the concentration needed to bring the measured effect to its halfway point. High values mean weaker potency, low ones greater potency.

The record followed here is patent publication US20200172483A1, “HETEROCYCLIC SMALL MOLECULE MODULATORS OF HUMAN STING” (Curadev Pharma Limited, priority 2017, published 2020).

Structures are written as SMILES.

The target of the experiment is T1, WT/R232 STING protein (Homo sapiens, UniProt Q86WV6, H232R).
T1 construct: host or cells: HEK293T
T1 sequence (Q86WV6 whole entry H232R): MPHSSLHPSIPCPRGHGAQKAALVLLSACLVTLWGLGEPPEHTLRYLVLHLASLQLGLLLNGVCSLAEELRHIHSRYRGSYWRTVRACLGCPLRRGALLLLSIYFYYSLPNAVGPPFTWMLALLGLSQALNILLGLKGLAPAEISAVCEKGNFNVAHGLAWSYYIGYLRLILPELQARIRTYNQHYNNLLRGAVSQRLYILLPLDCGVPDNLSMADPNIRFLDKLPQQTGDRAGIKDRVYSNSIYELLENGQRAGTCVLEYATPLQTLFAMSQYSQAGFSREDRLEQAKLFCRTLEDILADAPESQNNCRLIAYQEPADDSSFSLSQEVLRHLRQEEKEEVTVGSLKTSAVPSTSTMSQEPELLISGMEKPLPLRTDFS
The experiment can be described thus: Luciferase reporter assay in HEK293T-hSTING-Luciferase cells (R232). The format is cell-based. Particulars: 20 hr stimulation, EC50 range. The source says: • a) Stable STING expressing cells—Stable HEK293T STING-expressing cell lines were generated using plasmids purchased from Invivogen, CA, USA, that contain STING cDNA cloned into the pUNO-1 vector under hEF1-HTLV promoter and containing the Blasticidin selection cassette. The plasmids hSTING (R232), hSTING (H232), hSTING (HAQ) were directly procured from Invivogen while hSTING (AQ) and hSTING (Q) were derived from hSTING (HAQ) and hSTING (R232) plasmids respectively by using a PCR based site directed mutagenesis method. These vectors were individually transfected into HEK293T cells using Lipofectamine (Invitrogen) and transfected cells were selected under Blasticidin selection. These transfected cells were further subjected to clonal selection using the limiting dilution method to obtain clonally pure populations of HEK cells transfected with each of the above mentioned human STING variants. Only those clones were selected in which ligand independent activation of STING was minimal. • b) Stable Luciferase reporter gene expressing cells—Stable HEK293T Luciferase reporter gene expressing cell lines were generated using pCDNA4 plasmids under an IRF-inducible promoter. This promoter is comprised of five tandem interferon-stimulated response elements (ISRE) fused to an ISG54 minimal promoter. This vector was transfected into HEK293T cells using Lipofectamine (Invitrogen) and transfected cells were selected under Zeocin selection. These transfected cells were further subjected to clonal selection using the limiting dilution method to obtain clonally pure populations of HEK cells transfected the Luciferase reporter construct. Only those clones were selected in which ligand independent induction of luciferase was minimal.
5×10^5 clonally selected HEK293T-hSTING-Luciferase cells were seeded in 384-well plates in growth medium and stimulated with novel compounds. After 20 hr of stimulation supernatant were removed and secretary reporter gene activity were measured using the Quanti-Luc detection system (Invivogen) on a Spectramax i3X luminometer.
All compounds were first tested in a primary screen using WT/R232 STING protein to obtain a ‘fold-induction’ over baseline levels of protein activity.
`Cc1ncc(CN2C(=O)C(C)(C)c3ccc(C(=O)NCc4c(F)cc(F)cc4F)cc32)s1` [Example 58, 3,3-dimethyl-1-((2-methylthiazol-5-yl)methyl)-2-oxo-N-(2,4,6-trifluorobenzyl)indoline-6-carboxamide] had a half-maximal effective concentration (EC50) of 1 to 10 µM.
`Cc1ccc(CNC(=O)c2ccc3c(c2)N(CCc2ccccc2)C(=O)C3(C)C)o1` [Example 59, 3,3-dimethyl-N-((5-methylfuran-2-yl)methyl)-2-oxo-1-phenethylindoline-6-carboxamide] returned a half-maximal effective concentration (EC50) of 1 to 10 µM.
The compound `Cc1ccc(CNC(=O)c2ccc3c(c2)N(CC(=O)c2ccccc2)C(=O)C3(C)C)o1` [Example 62, 3,3-dimethyl-N-((5-methylfuran-2-yl)methyl)-2-oxo-1-(2-oxo-2-phenylethyl)indoline-6-carboxamide] returned an EC50 of more than 10 µM.
The compound `COc1cc(F)c(CN2C(=O)C(C)(C)c3ccc(C(=O)NCc4c(F)cc(F)cc4F)cc32)c(F)c1` [Example 64, 1-(2,6-difluoro-4-methoxybenzyl)-3,3-dimethyl-2-oxo-N-(2,4,6-trifluorobenzyl)indoline-6-carboxamide] yielded an EC50 not above 1 µM.
The same measure for `CC1(C)C(=O)N(Cc2c(F)cc(O)cc2F)c2cc(C(=O)NCc3c(F)cc(F)cc3F)ccc21` [Example 65, 1-(2,6-difluoro-4-hydroxybenzyl)-3,3-dimethyl-2-oxo-N-(2,4,6-trifluorobenzyl)indoline-6-carboxamide]: not above 1 µM.
With `COc1ccc(F)c(CN2C(=O)C(C)(C)c3ccc(C(=O)NCc4c(F)cc(F)cc4F)cc32)c1Cl` [Example 66, 1-(2-chloro-6-fluoro-3-methoxybenzyl)-3,3-dimethyl-2-oxo-N-(2,4,6-trifluorobenzyl)indoline-6-carboxamide], the EC50 is not above 1 µM.
The compound `CC1(C)C(=O)N(Cc2c(F)ccc(O)c2Cl)c2cc(C(=O)NCc3c(F)cc(F)cc3F)ccc21` [Example 67, 1-(2-chloro-6-fluoro-3-hydroxybenzyl)-3,3-dimethyl-2-oxo-N-(2,4,6-trifluorobenzyl)indoline-6-carboxamide] yielded a concentration for a half-maximal effect (EC50) not above 1 µM.
As to `Cn1cc(CN2C(=O)C(C)(C)c3ccc(C(=O)NCc4c(F)cc(F)cc4F)cc32)cn1` [Example 68, 3,3-dimethyl-1-((1-methyl-1H-pyrazol-4-yl)methyl)-2-oxo-N-(2,4,6-trifluorobenzyl)indoline-6-carboxamide], the half-maximal effective concentration (EC50) was 1 to 10 µM.
`CC1(C)C(=O)N(Cc2cc(F)cc(F)c2)c2cc(C(=O)NCc3ccc(F)o3)ccc21` [Example 69, 1-(3,5-difluorobenzyl)-N-((5-fluorofuran-2-yl)methyl)-3,3-dimethyl-2-oxoindoline-6-carboxamide] yielded an EC50 of 1 to 10 µM.
In the case of `Cn1nccc1CN1C(=O)C(C)(C)c2ccc(C(=O)NCc3c(F)cc(F)cc3F)cc21` [Example 77, 3,3-dimethyl-1-((1-methyl-1H-pyrazol-5-yl)methyl)-2-oxo-N-(2,4,6-trifluorobenzyl)indoline-6-carboxamide] it was 1 to 10 µM; in that of `Cc1cccc(-c2nc(CN3C(=O)C(C)(C)c4ccc(C(=O)NCc5c(F)cc(F)cc5F)cc43)c(C)o2)c1` [Example 78, 3,3-dimethyl-1-((5-methyl-2-(m-tolyl)oxazol-4-yl)methyl)-2-oxo-N-(2,4,6-trifluorobenzyl)indoline-6-carboxamide], more than 10 µM.
`CC1(C)C(=O)N(Cc2cccc(C(N)=O)c2F)c2cc(C(=O)NCc3c(F)cc(F)cc3F)ccc21` [Example 79, 1-(3-carbamoyl-2-fluorobenzyl)-3,3-dimethyl-2-oxo-N-(2,4,6-trifluorobenzyl)indoline-6-carboxamide] registered an EC50 of 1 to 10 µM.
In the case of `Cc1nn(C)cc1CN1C(=O)C(C)(C)c2ccc(C(=O)NCc3c(F)cc(F)cc3F)cc21` [Example 80, 1-((1,3-dimethyl-1H-pyrazol-4-yl)methyl)-3,3-dimethyl-2-oxo-N-(2,4,6-trifluorobenzyl)indoline-6-carboxamide] it was more than 10 µM; in that of `Cc1nc(CN2C(=O)C(C)(C)c3ccc(C(=O)NCc4c(F)cc(F)cc4F)cc32)co1` [Example 83, 3,3-dimethyl-1-((2-methyloxazol-4-yl)methyl)-2-oxo-N-(2,4,6-trifluorobenzyl)indoline-6-carboxamide], more than 10 µM; in that of `CC1(C)C(=O)N(Cc2c(F)cccc2C(F)(F)F)c2cc(C(=O)NCc3c(F)cc(F)cc3F)ccc21` [Example 84, 1-(2-fluoro-6-(trifluoromethyl)benzyl)-3,3-dimethyl-2-oxo-N-(2,4,6-trifluorobenzyl)indoline-6-carboxamide], 1 to 10 µM.
In turn, `CC1(C)C(=O)N(Cc2c(F)cccc2Cl)c2cc(C(=O)NCc3ccc(N)cc3)ccc21` [Example 85, N-(4-aminobenzyl)-1-(2-chloro-6-fluorobenzyl)-3,3-dimethyl-2-oxoindoline-6-carboxamide] displayed an EC50 of 1 to 10 µM.
In turn, `CC1(C)C(=O)N(Cc2c(F)cccc2Cl)c2cc(C(=O)NCc3ccc4c(c3)OCO4)ccc21` [Example 86, N-(benzo[d][1,3]dioxol-5-ylmethyl)-1-(2-chloro-6-fluorobenzyl)-3,3-dimethyl-2-oxoindoline-6-carboxamide] gave an EC50 of 1 to 10 µM.
`CC1(C)C(=O)N(Cc2c(F)cccc2Cl)c2cc(C(=O)NCc3cccc4c3OCO4)ccc21` [Example 87, N-(benzo[d][1,3]dioxol-4-ylmethyl)-1-(2-chloro-6-fluorobenzyl)-3,3-dimethyl-2-oxoindoline-6-carboxamide] yielded an EC50 of more than 10 µM.
For `CC1(C)C(=O)N(Cc2c(F)cccc2Cl)c2cc(C(=O)NCc3cc4cc(O)ccc4o3)ccc21` [Example 88, 1-(2-chloro-6-fluorobenzyl)-N-((5-hydroxybenzofuran-2-yl)methyl)-3,3-dimethyl-2-oxoindoline-6-carboxamide], the EC50 was 1 to 10 µM.
Compound `Cc1oc(-c2ccccc2)nc1CN1C(=O)C(C)(C)c2ccc(C(=O)NCc3c(F)cc(F)cc3F)cc21` [Example 91, 3,3-dimethyl-1-((5-methyl-2-phenyloxazol-4-yl)methyl)-2-oxo-N-(2,4,6-trifluorobenzyl)indoline-6-carboxamide] registered an EC50 of more than 10 µM.
Turning to `CC1(C)C(=O)N(Cc2c(F)cccc2Cl)c2cc(C(=O)NCc3cccc4occc34)ccc21` [Example 93, N-(benzofuran-4-ylmethyl)-1-(2-chloro-6-fluorobenzyl)-3,3-dimethyl-2-oxoindoline-6-carboxamide], the EC50 was more than 10 µM.
As for `CC1(C)C(=O)N(Cc2c(F)cccc2Cl)c2cc(C(=O)NCc3cc4cc([N+](=O)[O-])ccc4o3)ccc21` [Example 94, 1-(2-chloro-6-fluorobenzyl)-3,3-dimethyl-N-((5-nitrobenzofuran-2-yl)methyl)-2-oxoindoline-6-carboxamide], the EC50 was in the range of 1 to 10 µM.
In the case of `CC1(C)C(=O)N(Cc2c(F)cccc2Cl)c2cc(C(=O)NCc3ccc4c(c3)CC(=O)N4)ccc21` [Example 95, 1-(2-chloro-6-fluorobenzyl)-3,3-dimethyl-2-oxo-N-((2-oxoindolin-5-yl)methyl)indoline-6-carboxamide], the EC50 is more than 10 µM.
On to `Cn1ncc2cccc(CN3C(=O)C(C)(C)c4ccc(C(=O)NCc5c(F)cc(F)cc5F)cc43)c21` [Example 96, 3,3-dimethyl-1-((1-methyl-1H-indazol-7-yl)methyl)-2-oxo-N-(2,4,6-trifluorobenzyl)indoline-6-carboxamide], for which the concentration giving a half-maximal response (EC50) is 1 to 10 µM.
Take `CC1(C)C(=O)N(Cc2ccccn2)c2cc(C(=O)NCc3c(F)cc(F)cc3F)ccc21` [Example 99, 3,3-dimethyl-2-oxo-1-(pyridin-2-ylmethyl)-N-(2,4,6-trifluorobenzyl)indoline-6-carboxamide]: the EC50 lay within 1 to 10 µM.
For `CC1(C)C(=O)N(Cc2nc3ccccc3o2)c2cc(C(=O)NCc3c(F)cc(F)cc3F)ccc21` [Example 101, 1-(benzo[d]oxazol-2-ylmethyl)-3,3-dimethyl-2-oxo-N-(2,4,6-trifluorobenzyl)indoline-6-carboxamide], the EC50 is more than 10 µM.
`CC1(C)C(=O)N(Cc2cccc3c2OC(F)(F)O3)c2cc(C(=O)NCc3c(F)cc(F)cc3F)ccc21` [Example 105, 1-((2,2-difluorobenzo[d][1,3]dioxol-4-yl)methyl)-3,3-dimethyl-2-oxo-N-(2,4,6-trifluorobenzyl)indoline-6-carboxamide] came in with an EC50 of 1 to 10 µM.
For the compound `Cc1cccc(C)c1CN1C(=O)C(C)(C)c2ccc(C(=O)NCc3c(F)cc(F)cc3F)cc21` [Example 110, 1-(2,6-dimethylbenzyl)-3,3-dimethyl-2-oxo-N-(2,4,6-trifluorobenzyl)indoline-6-carboxamide], the EC50 is 1 to 10 µM.
For the compound `Cn1nc(C(F)(F)F)cc1CN1C(=O)C(C)(C)c2ccc(C(=O)NCc3c(F)cc(F)cc3F)cc21` [Example 113, 3,3-dimethyl-1-((1-methyl-3-(trifluoromethyl)-1H-pyrazol-5-yl)methyl)-2-oxo-N-(2,4,6-trifluorobenzyl)indoline-6-carboxamide], the EC50 lay in the range of 1 to 10 µM.
